From patent US20240226211A9, “SEAWEED EXTRACTS, ISOLATED COMPOUNDS, AND METHODS OF TREATMENT” (University of Florida Research Foundation, Incorporated, priority 2017, published 2024)

Legend:
[1] = system: Nqo1; assay: Nqo1 transcript levels in mouse organs after oral gavage; format: in vivo; details: mice, particularly digestive tract
Experimental: (§1) The RNeasy Mini Kit (Qiagen) was used to collect total RNA from cells, while for mouse tissue, TRIzol reagent (Invitrogen) was used. In each case, total RNAs (2 μg) were reverse-transcribed into cDNAs, which were used as templates for TaqMan gene expression assay (Applied Biosystems) and detected using the 7300 Real-Time PCR System (Applied Biosystems). Each qPCR sample was tested in triplicate as a 25 μL total reaction volume (12.5 μL of Taqman 2× universal master mix, 1.25 μL of a 20× TaqMan gene expression assay probe, 1 μL of the above cDNA, and 10.25 μL of RNase-free sterile water). The qPCR method was designed as following: 50° C. for 2 min, 95° C. for 10 min, and 40 cycles of 95° C. for 15 s and 60° C. for 1 min. Endogenous controls used included GAPDH for IMR-32 cells and β-actin to normalize for RAW264.7 cells and mouse tissues.
The experiments were approved by the Institutional Animal Care & Use Committee at the University of Florida. Groups of 5-10 wild type male mice (C57BL/6J) were used for each treatment type. The mice were maintained under approved standard conditions. […] The tissues were harvested immediately, frozen on dry ice, and kept at −80° C. until analyzed.
A low dose and a high dose of cymopol (1) or the NP extract were administered to 4-week-old male mice via oral gavage.

[2] = system: ARE-driven genes (GCLC, Gclm, TXNRD1, GSTA4, HMOX1); assay: qPCR of ARE-driven genes in IMR-32 cells; format: cell-based, human
Experimental: as §1

[3] = system: Nqo1; assay: Nqo1 transcript levels in RAW264.7 macrophage cells; format: cell-based, mouse; details: 10 μM Compound 1, IFN-γ
Experimental: as §1
(§2) RAW264.7 cells were seeded in 6-well plates (8×10^5 cells/well) and incubated at 37° C. overnight.

[4] = system: Staphylococcus aureus; assay: Preliminary antibacterial testing; format: cell-based
[5] = molecular target: T1, Keap1 (Cys-151) (Homo sapiens, UniProt Q14145); assay: Keap1 Cys-151 reactivity in co-transfected HEK293 cells; format: cell-based; details: for Keap1-associated Cul3 / Keap1-Cul3 interaction: Keap1-CBD and HA-Cul3
T1 construct: expressed in transfected cells; host or cells: HEK293
From the text: The ARE-luciferase reporter construct (ARE-luc) contains the core sequence of human NQO1-ARE1. […] Mol. Cell. […] The Keap1-CBD plasmid carries the entire open reading frame (ORF) of human Keap1 fused to the chitin binding domain (CBD) of the Bacillus circulans chitinase A1 gene upstream of the Keap1 stop codon. Oligonucleotide-directed mutagenesis was used to generate the Keap1-C151S-CBD and Keap1-C288S-CBD plasmids. The HA-Cul3 plasmid was constructed by fusing an N-terminal hemagglutinin (HA) tag with a cDNA sequence coding for amino acids 1-380 of human Cul3 gene. The Gal4-Neh2 expression vector contains the codons for the first 97 amino acids (Neh2 domain) of human Nrf2 fused to the ORF of the Gal4 DNA-binding domain
The reactivity at the amino acid level of KEAP1 was then investigated. […] In order to evaluate specific cysteine residues which may be alkylated in the presence of cymopols, HEK293 cells were co-transfected with either a mock plasmid, a wild-type Keap1-CBD, or a Keap1-C151S-CBD and HA-Cul3 (to evaluate Cul3 binding inhibition upon cymopol addition), HA-Nrf2 (to evaluate Nrf2-Keap1 interactions), or Gal4-Neh2 and HA-Ub (to evaluate ubiquitination patterns of Nrf2).

[6] = system: Cox2; assay: Cox2 transcript levels in RAW264.7 macrophage cells; format: cell-based, mouse; details: 10 μM Compound 1, IFN-γ
Experimental: as §1, §2

[7] = system: Nqo1; assay: Nqo1 activity assay in MEFs; format: cell-based, murine
Experimental: Wild-type (8×10^3 cells/well), Nrf2−/− (8×10^3 cells/well), and Keap1−/− (4×10^3 cells/well) MEFs were seeded into a 96-well format and incubated overnight at 37° C. Cells were treated with a solvent control (DMSO, 1%, v/v) or serial dilutions of isolated compounds or extracts for 40 hours.

T1 sequence (Q14145 whole entry): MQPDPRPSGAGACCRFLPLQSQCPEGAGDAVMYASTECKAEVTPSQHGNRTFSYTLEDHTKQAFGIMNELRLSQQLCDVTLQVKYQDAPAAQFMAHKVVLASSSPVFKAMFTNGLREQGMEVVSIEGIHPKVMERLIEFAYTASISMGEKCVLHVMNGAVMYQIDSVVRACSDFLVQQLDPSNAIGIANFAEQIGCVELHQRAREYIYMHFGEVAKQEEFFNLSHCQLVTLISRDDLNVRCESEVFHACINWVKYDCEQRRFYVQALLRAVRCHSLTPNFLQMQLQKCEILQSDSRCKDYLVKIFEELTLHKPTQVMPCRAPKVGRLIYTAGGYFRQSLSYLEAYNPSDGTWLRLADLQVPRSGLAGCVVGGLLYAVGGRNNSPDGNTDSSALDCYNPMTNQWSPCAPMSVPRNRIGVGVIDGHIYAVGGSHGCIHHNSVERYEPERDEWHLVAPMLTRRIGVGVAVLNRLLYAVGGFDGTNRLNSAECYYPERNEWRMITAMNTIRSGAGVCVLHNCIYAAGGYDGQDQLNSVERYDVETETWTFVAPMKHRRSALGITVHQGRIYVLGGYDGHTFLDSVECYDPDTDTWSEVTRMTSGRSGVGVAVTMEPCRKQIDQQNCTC

Compound: CC(C)=CCC/C(C)=C/Cc1cc(O)c(Br)cc1O [Compound 1, (E)-2-bromo-5-(3,7-dimethylocta-2,6-dien-1-yl)benzene-1,4-diol]
- transcript levels of Nqo1 in various organs [1]: elevated transcript levels of Nqo1
- transcription of a series of ARE-driven genes [2]: induce the transcription of a series of ARE-driven genes
- increase of Nqo1 transcript levels [3]: > 96%
- antibacterial activity [4]: inhibited
- Keap1-associated Cul3 / Keap1-Cul3 interaction [5]: increase binding of Keap1-Cul3 interaction
- Keap1-associated Cul3 / Keap1-Cul3 interaction ([5]; listed as compound 1): reduced
- dimerization of Keap1 ([5]; Keap1-CBD and HA-Nrf2, dependent on Cys-151): increase dimerization of Keap1
- Neh2 ubiquitination ([5]; wild-type Keap1, Gal4-Neh2 and HA-Ub, preliminary data): less Neh2 ubiquitination
- levels of Neh2 ([5]; wild-type Keap1, preliminary data): higher levels of Neh2
- reduction of Cox2 transcript levels [6]: 90%
- Nqo1 enzymatic activity ([7]; each MEF cell type relative to DMSO control): induce Nqo1 enzymatic activity in a dose-dependent manner
- relative Nqo1 activity, wild-type versus knockout MEFs ([7]; high concentrations): more so in wild-type than in Nrf2 and Keap1 knockout MEFs
